# Values quoted from earlier work in US10507188B2, “Particles containing an opioid receptor antagonist and methods of use” (priority 2008, dated 2019).
# Details: white crystalline powder, typically the bromide salt (Mallinckrodt)
compound,measurement,value
"C[N+]1(CC2CC2)CCC23c4c5ccc(O)c4OC2C(=O)CCC3(O)C1C5 (stereo not shown) [MNTX, N-methylnaltrexone]",solubility in water,freely soluble in water
